Values joined by “and” are separate entries in the source; they are usually repeats but may differ in a detail not shown here. Equal values may be shown once. Toxic doses and inconclusive results are not listed. Rule for the calls: active = survival T/C of 150% or more; inactive = T/C below 125% in these data.
System: CD2F1 mice, L1210 leukemia ip, survival T/C
Experiment: NCI In Vivo Anticancer Drug Screen. Data for tumor model L1210 Leukemia (intraperitoneal) in CD2F1 (CDF1) mice
Details: higher = longer survival
In short: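 Implant tumor; dose compound or vehicle; measure endpoint in both groups; report treated divided by control.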

[1] = endpoint: mean survival time, dose: 100.0 mg/kg/injection, schedule: Q01DX009 (ip), vehicle: saline with Tween-80
[2] = endpoint: mean survival time, dose: 200.0 mg/kg/injection, schedule: Q01DX009 (ip), vehicle: saline with Tween-80
[3] = endpoint: mean survival time, dose: 400.0 mg/kg/injection, schedule: Q01DX009 (ip), vehicle: saline with Tween-80
[4] = endpoint: mean survival time, dose: 100.0 mg/kg/injection, schedule: Q04DX002 (ip), vehicle: saline with Tween-80
[5] = endpoint: mean survival time, dose: 200.0 mg/kg/injection, schedule: Q04DX002 (ip), vehicle: saline with Tween-80
[6] = endpoint: mean survival time, dose: 400.0 mg/kg/injection, schedule: Q04DX002 (ip), vehicle: saline with Tween-80
[7] = endpoint: mean survival time, dose: 100.0 mg/kg/injection, schedule: Q01DX001 (ip), vehicle: saline with Tween-80
[8] = endpoint: mean survival time, dose: 200.0 mg/kg/injection, schedule: Q01DX001 (ip), vehicle: saline with Tween-80
[9] = endpoint: mean survival time, dose: 400.0 mg/kg/injection, schedule: Q01DX001 (ip), vehicle: saline with Tween-80
[10] = endpoint: mean survival time, dose: 50.0 mg/kg/injection, schedule: Q01DX009 (ip), vehicle: saline with Tween-80
[11] = endpoint: mean survival time, dose: 100.0 mg/kg/injection, schedule: Q01DX001 (ip), vehicle: Klucel (hydroxypropylcellulose) (HPC)
[12] = endpoint: mean survival time, dose: 200.0 mg/kg/injection, schedule: Q01DX001 (ip), vehicle: Klucel (hydroxypropylcellulose) (HPC)
[13] = endpoint: mean survival time, dose: 400.0 mg/kg/injection, schedule: Q01DX001 (ip), vehicle: Klucel (hydroxypropylcellulose) (HPC)

Measured: T/C

CNC(=S)C#N
inactive: endpoint: median survival time, dose: 6.25 mg/kg/injection, schedule: Q01DX005 (ip), vehicle: saline + Tween-80 + alcohol 100 % of control | endpoint: median survival time, dose: 12.5 mg/kg/injection, schedule: Q01DX005 (ip), vehicle: saline + Tween-80 + alcohol 97 % of control | endpoint: median survival time, dose: 25.0 mg/kg/injection, schedule: Q01DX005 (ip), vehicle: saline + Tween-80 + alcohol 98 % of control and 102 % of control | endpoint: median survival time, dose: 50.0 mg/kg/injection, schedule: Q01DX005 (ip), vehicle: saline + Tween-80 + alcohol 87 % of control and 112 % of control

COc1ccc(CC(=O)O)cc1OC (tested in a mixture with another compound)
inactive: [1] 96 % of control | endpoint: mean survival time, dose: 100.0 mg/kg/injection, schedule: Q04DX003 (ip), vehicle: saline sonified 101 % of control | [2] 98 % of control | endpoint: mean survival time, dose: 200.0 mg/kg/injection, schedule: Q04DX003 (ip), vehicle: saline sonified 101 % of control | [3] 102 % of control | endpoint: mean survival time, dose: 400.0 mg/kg/injection, schedule: Q04DX003 (ip), vehicle: saline sonified 96 % of control

C[NH-].C[NH-].C[NH-].C[NH-].O=C(O)c1cc(C(=O)O)c(C(=O)O)cc1C(=O)O.[Pt+2].[Pt+2]
inactive: endpoint: mean survival time, dose: 3.12 mg/kg/injection, schedule: Q04DX003 (ip), vehicle: distilled water + Tween-80 100 % of control | endpoint: mean survival time, dose: 6.25 mg/kg/injection, schedule: Q04DX003 (ip), vehicle: distilled water + Tween-80 102 % of control | endpoint: mean survival time, dose: 12.5 mg/kg/injection, schedule: Q04DX003 (ip), vehicle: distilled water + Tween-80 103 % of control | endpoint: mean survival time, dose: 25.0 mg/kg/injection, schedule: Q04DX003 (ip), vehicle: distilled water + Tween-80 105 % of control | endpoint: mean survival time, dose: 50.0 mg/kg/injection, schedule: Q04DX003 (ip), vehicle: distilled water + Tween-80 102 % of control | endpoint: mean survival time, dose: 100.0 mg/kg/injection, schedule: Q04DX003 (ip), vehicle: distilled water + Tween-80 103 % of control | endpoint: mean survival time, dose: 200.0 mg/kg/injection, schedule: Q04DX003 (ip), vehicle: distilled water + Tween-80 107 % of control

CCOC(=O)c1cccc(N(CCOS(C)(=O)=O)CCOS(C)(=O)=O)c1
inactive: endpoint: mean survival time, dose: 2.0 mg/kg/injection, schedule: Q01DX010 (ip), vehicle: saline 100 % of control | endpoint: mean survival time, dose: 4.0 mg/kg/injection, schedule: Q01DX010 (ip), vehicle: saline 106 % of control | endpoint: mean survival time, dose: 8.0 mg/kg/injection, schedule: Q01DX010 (ip), vehicle: saline 119 % of control | endpoint: mean survival time, dose: 16.0 mg/kg/injection, schedule: Q01DX010 (ip), vehicle: saline 121 % of control | endpoint: mean survival time, dose: 50.0 mg/kg/injection, schedule: Q01DX001 (ip), vehicle: saline 98 % of control | endpoint: mean survival time, dose: 100.0 mg/kg/injection, schedule: Q01DX001 (ip), vehicle: saline 101 % of control | endpoint: mean survival time, dose: 200.0 mg/kg/injection, schedule: Q01DX001 (ip), vehicle: saline 101 % of control

CC(=O)OCC1CCC1
inactive: [1] 95 % of control | [2] 95 % of control | [3] 103 % of control

CCCCCCCCCCCCCCCCOCCOCCOCCOCCOCCCCCCCCCCCCCCCC
inactive: [4] 94 % of control | [5] 94 % of control | [6] 98 % of control

O=c1[nH]nc(-c2cccc3ccccc23)o1
inactive: [7] 96 % of control | [8] 99 % of control | [9] 108 % of control

O=C(O)C1CCOC1=O (centres undefined)
inactive: endpoint: mean survival time, dose: 50.0 mg/kg/injection, schedule: Q04DX002 (ip), vehicle: saline 107 % of control | endpoint: mean survival time, dose: 100.0 mg/kg/injection, schedule: Q04DX002 (ip), vehicle: saline 98 % of control | endpoint: mean survival time, dose: 200.0 mg/kg/injection, schedule: Q04DX002 (ip), vehicle: saline 98 % of control

NNC(=O)COc1ccc(Cl)cc1Cl
inactive: endpoint: mean survival time, dose: 25.0 mg/kg/injection, schedule: Q01DX009 (ip), vehicle: saline with Tween-80 102 % of control | [10] 105 % of control | [1] 104 % of control

CC(C)(C)C1=CC(=C2C=C(C(C)(C)C)C(=O)C(C(C)(C)C)=C2)C=C(C(C)(C)C)C1=O
inactive: endpoint: mean survival time, dose: 75.0 mg/kg/injection, schedule: Q04DX003 (ip), vehicle: saline with Tween-80 100 % of control | [1] 95 % of control | endpoint: mean survival time, dose: 150.0 mg/kg/injection, schedule: Q04DX003 (ip), vehicle: saline with Tween-80 100 % of control | [2] 91 % of control | endpoint: mean survival time, dose: 300.0 mg/kg/injection, schedule: Q04DX003 (ip), vehicle: saline with Tween-80 89 % of control | [3] 91 % of control

CC(/C=C/C=C/c1ccccc1)=N\O
inactive: [11] 101 % of control | [12] 110 % of control | [13] 104 % of control

C[P+]1(c2ccccc2)CCC(N)=C(C#N)C1 (centres undefined)
inactive: endpoint: mean survival time, dose: 25.0 mg/kg/injection, schedule: Q04DX002 (ip), vehicle: saline with Tween-80 97 % of control | endpoint: mean survival time, dose: 50.0 mg/kg/injection, schedule: Q04DX002 (ip), vehicle: saline with Tween-80 101 % of control | [4] 101 % of control

CC(C)C1=CCC(OC(=O)N=C=Nc2ccccc2)CC1 (centres undefined)
inactive: [11] 93 % of control | [4] 90 % of control | [12] 91 % of control | [5] 96 % of control | [13] 94 % of control | [6] 93 % of control

O=C(O)c1ccccc1C(=O)CC(O)(C(F)(F)F)C(F)(F)F
inactive: endpoint: mean survival time, dose: 100.0 mg/kg/injection, schedule: Q04DX003 (ip), vehicle: saline with Tween-80 101 % of control | endpoint: mean survival time, dose: 200.0 mg/kg/injection, schedule: Q04DX003 (ip), vehicle: saline with Tween-80 97 % of control | endpoint: mean survival time, dose: 400.0 mg/kg/injection, schedule: Q04DX003 (ip), vehicle: saline with Tween-80 102 % of control

O=NN(CCCCl)C(=O)Nc1ccccc1
inactive: endpoint: mean survival time, dose: 100.0 mg/kg/injection, schedule: Q01DX001 (ip), vehicle: carboxymethylcellulose (CMC) 96 % of control | endpoint: mean survival time, dose: 200.0 mg/kg/injection, schedule: Q01DX001 (ip), vehicle: carboxymethylcellulose (CMC) 119 % of control

C=CCN(CC=C)C1=CC(=O)C(=O)c2ccccc21
inactive: endpoint: mean survival time, dose: 75.0 mg/kg/injection, schedule: Q01DX001 (ip), vehicle: saline 91 % of control | endpoint: mean survival time, dose: 150.0 mg/kg/injection, schedule: Q01DX001 (ip), vehicle: saline 100 % of control | endpoint: mean survival time, dose: 300.0 mg/kg/injection, schedule: Q01DX001 (ip), vehicle: saline 89 % of control

CC(=O)Nc1ccc(Br)cn1
inactive: [7] 97 % of control | [8] 105 % of control | [9] 102 % of control

Nc1nc(N)c2c(n1)NCN(CCc1ccccc1Cl)C2
inactive: endpoint: mean survival time, dose: 0.75 mg/kg/injection, schedule: Q01DX009 (ip), vehicle: distilled water + Tween-80 93 % of control | endpoint: mean survival time, dose: 1.5 mg/kg/injection, schedule: Q01DX009 (ip), vehicle: distilled water + Tween-80 98 % of control | endpoint: mean survival time, dose: 3.0 mg/kg/injection, schedule: Q01DX009 (ip), vehicle: distilled water + Tween-80 94 % of control | endpoint: mean survival time, dose: 6.0 mg/kg/injection, schedule: Q01DX009 (ip), vehicle: distilled water + Tween-80 100 % of control | endpoint: mean survival time, dose: 12.0 mg/kg/injection, schedule: Q01DX009 (ip), vehicle: distilled water + Tween-80 94 % of control | endpoint: mean survival time, dose: 24.0 mg/kg/injection, schedule: Q01DX009 (ip), vehicle: distilled water + Tween-80 102 % of control | endpoint: mean survival time, dose: 48.0 mg/kg/injection, schedule: Q01DX009 (ip), vehicle: distilled water + Tween-80 96 % of control | endpoint: mean survival time, dose: 80.0 mg/kg/injection, schedule: Q01DX009 (ip), vehicle: distilled water + Tween-80 96 % of control

ClC1C2CCC(C2)C1(Cl)Cl (centres undefined)
inactive: endpoint: mean survival time, dose: 0.3 mg/kg/injection, schedule: Q01DX001 (ip), vehicle: saline with Tween-80 100 % of control | endpoint: mean survival time, dose: 0.6 mg/kg/injection, schedule: Q01DX001 (ip), vehicle: saline with Tween-80 103 % of control | endpoint: mean survival time, dose: 1.2 mg/kg/injection, schedule: Q01DX001 (ip), vehicle: saline with Tween-80 102 % of control

COC(=O)C1C2CCc3cc(OC)ccc3C2CC(=O)C1(C)C(=O)OC (centres undefined)
inactive: endpoint: mean survival time, dose: 100.0 mg/kg/injection, schedule: Q04DX003 (sc), vehicle: steriod suspending solution 103 % of control | endpoint: mean survival time, dose: 200.0 mg/kg/injection, schedule: Q04DX003 (sc), vehicle: steriod suspending solution 95 % of control | endpoint: mean survival time, dose: 400.0 mg/kg/injection, schedule: Q04DX003 (sc), vehicle: steriod suspending solution 104 % of control

Cc1cc(S(=O)(=O)F)cc(Cl)c1S
inactive: [4] 102 % of control

O=C(CNC(=O)NCc1ccco1)N/N=C/c1cccc([N+](=O)[O-])c1
inactive: [10] 92 % of control | [1] 88 % of control | [2] 103 % of control

O=C(CCl)Nc1cc(Cl)c(Cl)cc1Cl
inactive: [1] 97 % of control | [2] 94 % of control | [3] 102 % of control

From PubChem BioAssay AID256 (DTP/NCI, 2004)
